Literature values, collected in patent publication US20100189771A1, “FIXED RATIO DRUG COMBINATION TREATMENTS FOR SOLID TUMORS” (priority 2005, published 2010).
Read-outs that look alike come from different tables or passages of the source.

Conditions: conventional irinotecan

IRINOTECAN AUC (dose 240 mg/m^2, N=3): 18,091 ng-h/ml
IRINOTECAN Cmax (dose 240 mg/m^2, N=3, patients' plasma): 2,810 ng/ml
IRINOTECAN AUC (dose 340 mg/m^2, N=6): 22,998 ng-h/ml
IRINOTECAN Cmax (dose 340 mg/m^2, N=6): 3,392 ng/ml
SMILES: CCc1c2c(nc3ccc(OC(=O)N4CCC(N5CCCCC5)CC4)cc13)-c1cc3c(c(=O)n1C2)COC(=O)[C@]3(O)CC [Irinotecan, irinotecan]
